The nature of the data set: Stability of the solid state form under stress conditions (high temperature and relative humidity). The format is physicochemical. Particulars: stressed conditions, e.g. high temperature and relative humidity; solid to solid phase / polymorph transformation. From the text:
Pharmaceutical molecules may display solid to solid phase transformations and transformations between polymorphs; which may detected by exposure of the solid state form to stress conditions of e.g., high temperature and high relative humidity.

Take `CCc1cc(/C(C)=N/OCc2ccc(C3CCCCC3)c(C(F)(F)F)c2)ccc1CN1CC(C(=O)O)C1.CCc1cc(/C(C)=N/OCc2ccc(C3CCCCC3)c(C(F)(F)F)c2)ccc1CN1CC(C(=O)O)C1.O=C(O)/C=C/C(=O)O` [Crystalline Siponimod fumaric acid]: the “thermodynamic and chemical stability of the solid state form” value was “thermodynamically stable and steady under stressed conditions”.

With `CCc1cc(/C(C)=N/OCc2ccc(C3CCCCC3)c(C(F)(F)F)c2)ccc1CN1CC(C(=O)O)C1.CCc1cc(/C(C)=N/OCc2ccc(C3CCCCC3)c(C(F)(F)F)c2)ccc1CN1CC(C(=O)O)C1.O=C(O)/C=C/C(=O)O` [crystalline Form 7 of Siponimod fumaric acid], the “thermodynamic and chemical stability of the solid state form” value was “thermodynamically and chemical stable”.

The values above are taken from patent US11673860B2, “Crystalline siponimod fumaric acid and polymorphs thereof” (TEVA PHARMACEUTICALS INTERNATIONAL GMBH, priority 2018, dated 2023).
